Tests used:
Type in all cases: in vivo
[1] = test system: ducksalad (Heteranthera limosa); assay: Test B flooded paddy test; conditions: Heteranthera limosa, 250 g ai/ha, Flood; 0 to 100 scale where 0 is no effect and 100 is complete control; read-out: Ducksalad plant response rating
Procedure, shortened: (§1)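 Compound goes directly into floodwater once pots are flooded 3 cm above soil, targeting plants at two leaves; the water depth is then held for the test duration. Plants sit 13–15 d in a greenhouse and are rated visually, 100 denoting complete control.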

[2] = test system: sedge, umbrella (small-flower umbrella sedge, Cyperus difformis); assay: Test B flooded paddy test; conditions: Cyperus difformis, 250 g ai/ha, Flood; 0 to 100 scale where 0 is no effect and 100 is complete control; read-out: Sedge, Umbrella plant response rating
Procedure, shortened: as §1

rice (Oryra sativa) = assay: Test B flooded paddy test; conditions: Oryza sativa, 250 g ai/ha, Flood; 0 to 100 scale where 0 is no effect and 100 is complete control; read-out: Rice plant response rating
Procedure, shortened: as §1

[3] = test system: barnyardgrass (Echinochloa crus-galli); assay: Test B flooded paddy test; conditions: Echinochloa crus-galli, 250 g ai/ha, Flood; 0 to 100 scale where 0 is no effect and 100 is complete control; read-out: Barnyardgrass plant response rating
Procedure, shortened: as §1

[4] = test system: ragweed (common ragweed, Ambrosia elatior); assay: Test A postemergence; conditions: Ambrosia artemisiifolia, post-emergence, 240 h, Postemergence, read-out: Ragweed plant response rating (0 to 100 scale); for pest or weed control at 125 g/ha: 125 g ai/ha, visual rating about 10 d after treatment; for pest or weed control at 31 g/ha: 31 g ai/ha, 0 is no effect, 100 is complete control
Procedure, shortened: (§2)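 Visual injury, scored on a 0–100 scale relative to untreated controls, was recorded about 10 d after application. Treatments were a preemergence soil spray over planted seeds or a postemergence spray on plants at the one- to two-leaf stage, 2 to 10 cm tall, all in loam soil–sand blend in the greenhouse.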

[5] = test system: pigweed (Amaranthus retroflexus); assay: Test A postemergence; conditions: Amaranthus retroflexus, post-emergence, 240 h, Postemergence, read-out: Pigweed plant response rating (0 to 100 scale); for pest or weed control at 125 g/ha: 125 g ai/ha, visual rating about 10 d after treatment; for pest or weed control at 31 g/ha: 31 g ai/ha, 0 is no effect, 100 is complete control
Procedure, shortened: as §2

Kochia (Kochia scoparia) [6] = assay: Test A postemergence; conditions: Bassia scoparia, post-emergence, 240 h, Postemergence, read-out: Kochia plant response rating (0 to 100 scale); for pest or weed control at 125 g/ha: 125 g ai/ha, visual rating about 10 d after treatment; for pest or weed control at 31 g/ha: 31 g ai/ha, 0 is no effect, 100 is complete control
Procedure, shortened: as §2

[7] = test system: giant foxtail (Setaria faberii); assay: Test A postemergence; conditions: Setaria faberi, post-emergence, 240 h, Postemergence, read-out: Foxtail, Giant plant response rating (0 to 100 scale); for pest or weed control at 125 g/ha: 125 g ai/ha, visual rating about 10 d after treatment; for pest or weed control at 31 g/ha: 31 g ai/ha, 0 is no effect, 100 is complete control
Procedure, shortened: as §2

[8] = test system: barnyardgrass (Echinochloa crus-galli); assay: Test A postemergence; conditions: Echinochloa crus-galli, post-emergence, 240 h, Postemergence; for pest or weed control at 125 g/ha: 125 g ai/ha, visual rating about 10 d after treatment, read-out: Barnyardgrass plant response rating (0 to 100 scale, 0 no effect, 100 complete control); for pest or weed control at 31 g/ha: 31 g ai/ha, 0 is no effect, 100 is complete control, read-out: Barnyardgrass plant response rating (0 to 100 scale)
Procedure, shortened: as §2

[9] = test system: ryegrass, Italian (Italian ryegrass, Lolium multiflorum); assay: Test A postemergence; conditions: Lolium multiflorum, post-emergence, 240 h, Postemergence, read-out: Ryegrass, Italian plant response rating (0 to 100 scale); for pest or weed control at 125 g/ha: 125 g ai/ha, visual rating about 10 d after treatment; for pest or weed control at 31 g/ha: 31 g ai/ha, 0 is no effect, 100 is complete control
Procedure, shortened: as §2

[10] = test system: wheat (Triticum aestivum); assay: Test A postemergence; conditions: Triticum aestivum, post-emergence, 240 h, Postemergence, read-out: Wheat plant response rating (0 to 100 scale); for plant injury at 125 g/ha: 125 g ai/ha, visual rating about 10 d after treatment; for plant injury at 31 g/ha: 31 g ai/ha, 0 is no effect, 100 is complete control
Procedure, shortened: as §2

[11] = test system: blackgrass (Alopecurus myosuroides); assay: Test A postemergence; conditions: Alopecurus myosuroides, post-emergence, 240 h, Postemergence, read-out: Blackgrass plant response rating (0 to 100 scale); for pest or weed control at 125 g/ha: 125 g ai/ha, visual rating about 10 d after treatment; for pest or weed control at 31 g/ha: 31 g ai/ha, 0 is no effect, 100 is complete control
Procedure, shortened: as §2

[12] = test system: Galium (catchweed bedstraw, Galium aparine); assay: Test A postemergence; conditions: Galium, post-emergence, 240 h, Postemergence, read-out: Galium plant response rating (0 to 100 scale); for pest or weed control at 125 g/ha: 125 g ai/ha, visual rating about 10 d after treatment; for pest or weed control at 31 g/ha: 31 g ai/ha, 0 is no effect, 100 is complete control
Procedure, shortened: as §2

corn (Zea mays) = assay: Test A postemergence; conditions: Zea mays, post-emergence, 240 h, Postemergence, read-out: Corn plant response rating (0 to 100 scale); for plant injury at 125 g/ha: 125 g ai/ha, visual rating about 10 d after treatment; for plant injury at 31 g/ha: 31 g ai/ha, 0 is no effect, 100 is complete control
Procedure, shortened: as §2

[13] = test system: ragweed (common ragweed, Ambrosia elatior); assay: Test A preemergence; conditions: Ambrosia artemisiifolia, pre-emergence, 240 h, 0 to 100 scale where 0 is no effect and 100 is complete control, read-out: Ragweed plant response rating; for pest or weed control at 31 g/ha: 31 g ai/ha, Preemergence; for pest or weed control at 125 g/ha: 125 g ai/ha, preemergence, visual injury rating, approximately 10 d
Procedure, shortened: as §2

[14] = test system: pigweed (Amaranthus retroflexus); assay: Test A preemergence; conditions: Amaranthus retroflexus, pre-emergence, 240 h, 0 to 100 scale where 0 is no effect and 100 is complete control, read-out: Pigweed plant response rating; for pest or weed control at 31 g/ha: 31 g ai/ha, Preemergence; for pest or weed control at 125 g/ha: 125 g ai/ha, preemergence, visual injury rating, approximately 10 d
Kochia (Kochia scoparia) [15] = assay: Test A preemergence; conditions: Bassia scoparia, pre-emergence, 240 h, 0 to 100 scale where 0 is no effect and 100 is complete control, read-out: Kochia plant response rating; for pest or weed control at 31 g/ha: 31 g ai/ha, Preemergence; for pest or weed control at 125 g/ha: 125 g ai/ha, preemergence, visual injury rating, approximately 10 d
Procedure, shortened: as §2

[16] = test system: giant foxtail (Setaria faberii); assay: Test A preemergence; conditions: Setaria faberi, pre-emergence, 240 h, 0 to 100 scale where 0 is no effect and 100 is complete control, read-out: Foxtail, Giant plant response rating; for pest or weed control at 31 g/ha: 31 g ai/ha, Preemergence; for pest or weed control at 125 g/ha: 125 g ai/ha, preemergence, visual injury rating, approximately 10 d
Procedure, shortened: as §2

[17] = test system: barnyardgrass (Echinochloa crus-galli); assay: Test A preemergence; conditions: Echinochloa crus-galli, pre-emergence, 240 h, 0 to 100 scale where 0 is no effect and 100 is complete control, read-out: Barnyardgrass plant response rating; for pest or weed control at 31 g/ha: 31 g ai/ha, Preemergence; for pest or weed control at 125 g/ha: 125 g ai/ha, preemergence, visual injury rating, approximately 10 d
Procedure, shortened: as §2

[18] = test system: ryegrass, Italian (Italian ryegrass, Lolium multiflorum); assay: Test A preemergence; conditions: Lolium multiflorum, pre-emergence, 240 h, 0 to 100 scale where 0 is no effect and 100 is complete control, read-out: Ryegrass, Italian plant response rating; for pest or weed control at 31 g/ha: 31 g ai/ha, Preemergence; for pest or weed control at 125 g/ha: 125 g ai/ha, preemergence, visual injury rating, approximately 10 d
Procedure, shortened: as §2

| SMILES | pest or weed control at 250 g/ha [1] [%] | pest or weed control at 250 g/ha [2] [%] | pest or weed control at 250 g/ha (rice (Oryra sativa)) [%] | pest or weed control at 250 g/ha [3] [%] | pest or weed control at 125 g/ha [4] [%] | pest or weed control at 31 g/ha [4] [%] | pest or weed control at 125 g/ha [5] [%] | pest or weed control at 31 g/ha [5] [%] | pest or weed control at 125 g/ha (Kochia (Kochia scoparia) [6]) [%] | pest or weed control at 31 g/ha (Kochia (Kochia scoparia) [6]) [%] | pest or weed control at 125 g/ha [7] [%] | pest or weed control at 31 g/ha [7] [%] | pest or weed control at 125 g/ha [8] [%] | pest or weed control at 31 g/ha [8] [%] | pest or weed control at 125 g/ha [9] [%] | pest or weed control at 31 g/ha [9] [%] | plant injury at 125 g/ha [10] [%] | plant injury at 31 g/ha [10] [%] | pest or weed control at 125 g/ha [11] [%] | pest or weed control at 31 g/ha [11] [%] | other results |
| --- | --- | --- | --- | --- | --- | --- | --- | --- | --- | --- | --- | --- | --- | --- | --- | --- | --- | --- | --- | --- | --- |
| CN1C[C@H](c2csc3c2CCC3)[C@@H](C(=O)Nc2cccc(F)c2F)C1=O [Compound 1278] | 90 | 0 | 35 | 60 | 30 | 0 | 0 | 0 | 20 | 0 | 80 | 50 | 100 | 70 | 0 | 0 | 0 | 0 | 0 | 0 | pest or weed control at 125 g/ha [12]: 0%; pest or weed control at 31 g/ha [12]: 0%; plant injury at 125 g/ha (corn (Zea mays)): 0%; plant injury at 31 g/ha (corn (Zea mays)): 0%; pest or weed control at 31 g/ha [13]: 20%; pest or weed control at 125 g/ha [13]: 100%; pest or weed control at 31 g/ha [14]: 0%; pest or weed control at 125 g/ha [14]: 90%; pest or weed control at 31 g/ha (Kochia (Kochia scoparia) [15]): 30%; pest or weed control at 125 g/ha (Kochia (Kochia scoparia) [15]): 30%; pest or weed control at 31 g/ha [16]: 100%; pest or weed control at 125 g/ha [16]: 100%; pest or weed control at 31 g/ha [17]: 80%; pest or weed control at 125 g/ha [17]: 100%; pest or weed control at 31 g/ha [18]: 0%; pest or weed control at 125 g/ha [18]: 30% |
| Cc1ccc([C@H]2CN(C)C(=O)[C@@H]2C(=O)Nc2c(F)c(F)c(F)c(F)c2F)cc1 [Compound 1292] | 0 | 0 | 15 | 0 | 0 | 0 | 0 | 0 | 0 | 0 | 0 | 0 | 0 | 0 | 0 | 0 | 0 | 0 | 0 | 0 | pest or weed control at 125 g/ha [12]: 0%; pest or weed control at 31 g/ha [12]: 0%; plant injury at 125 g/ha (corn (Zea mays)): 0%; plant injury at 31 g/ha (corn (Zea mays)): 0%; pest or weed control at 31 g/ha [13]: 0%; pest or weed control at 125 g/ha [13]: 0%; pest or weed control at 31 g/ha [14]: 40%; pest or weed control at 125 g/ha [14]: 40%; pest or weed control at 31 g/ha (Kochia (Kochia scoparia) [15]): 60%; pest or weed control at 125 g/ha (Kochia (Kochia scoparia) [15]): 60%; pest or weed control at 31 g/ha [16]: 70%; pest or weed control at 125 g/ha [16]: 80%; pest or weed control at 31 g/ha [17]: 0%; pest or weed control at 125 g/ha [17]: 50%; pest or weed control at 31 g/ha [18]: 0%; pest or weed control at 125 g/ha [18]: 40% |

Reference: patent US12077503B2, “Substituted cyclic amides and their use as herbicides” (FMC CORPORATION, priority 2015, dated 2024)
